# Experimental data from paper PMC10762035, “Molecular basis of human trace amine-associated receptor 1 activation” (Nature Communications, 2024).
# Changes are numbered by the printed parent chain. Where “and” joins values, the source holds several entries; their conditions need not be identical. Equal entries are not always repeated. Where two headings read alike, the source gives them in different places.
# Assays:
# hTA1 T194A = molecular target: T1, hTA1 T194A (Homo sapiens, UniProt Q96RJ0, T194A); experiment: GloSensor cAMP accumulation assay, T194A mutant; settings: for cAMP accumulation response, individual replicate values of the concentration-response curve: hTA1 T194A, log[Agonist], Supplementary Figure 5 source data
# T1 sequence (Q96RJ0 1-339 T194A): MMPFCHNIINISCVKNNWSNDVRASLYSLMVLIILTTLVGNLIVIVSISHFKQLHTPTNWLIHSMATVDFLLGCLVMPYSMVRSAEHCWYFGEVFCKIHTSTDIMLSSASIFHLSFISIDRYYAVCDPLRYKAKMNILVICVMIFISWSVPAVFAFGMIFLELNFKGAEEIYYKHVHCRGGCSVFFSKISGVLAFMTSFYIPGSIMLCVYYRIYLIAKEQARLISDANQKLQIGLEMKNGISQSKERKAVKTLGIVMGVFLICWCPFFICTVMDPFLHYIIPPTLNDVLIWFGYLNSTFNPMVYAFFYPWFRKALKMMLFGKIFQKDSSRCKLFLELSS
# hTA1 I290Y = molecular target: T2, hTA1 I290Y (Homo sapiens, UniProt Q96RJ0, I290Y); experiment: GloSensor cAMP accumulation assay, I290Y mutant; assay type: cell-based; settings: for cAMP accumulation response, normalized (concentration-response source data, single replicate values): hTA1 I290Y (N=3), log[Compound];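 as to cAMP accumulation response, normalized (concentration-response source data, single replicate values): normalized to the maximum response of β-PEA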
# T2 construct: expressed in transfected cells; host or cells: HEK293T
# T2 sequence (Q96RJ0 1-339 I290Y): T1 sequence (Q96RJ0 1-339 T194A) with A194T, I290Y
# hTA1 R83H = molecular target: T3, hTA1 R83H (Homo sapiens, UniProt Q96RJ0, R83H); experiment: GloSensor cAMP accumulation assay, R83H mutant; assay type: cell-based;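 also: cells transiently co-expressing hTA1 and a cAMP GloSensor, luminescence read 30 min after agonist addition at room temperature, concentration–response fitted by non-linear regression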
# T3 construct: expressed in transfected cells; host or cells: HEK293T
# T3 sequence (Q96RJ0 1-339 R83H): T1 sequence (Q96RJ0 1-339 T194A) with R83H, A194T
# hTA1 = molecular target: T4, hTA1 (Homo sapiens, UniProt Q96RJ0); experiment: GloSensor cAMP accumulation assay, concentration response, wild-type hTA1 in transfected HEK293T cells; assay type: cell-based; settings: for Emax: HEK-293T;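 as to all read-outs here: luminescence read after 30 min compound exposure at room temperature in cells preloaded with D-Luciferin, reflecting Gs-driven cAMP rise, efficacy scaled to the maximal β-PEA response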
# T4 construct: expressed in transfected cells; host or cells: HEK293T
# T4 sequence (Q96RJ0 1-339): T1 sequence (Q96RJ0 1-339 T194A) with A194T
structure (smiles),measurement,setting,value
CCc1[nH]nc(C(=O)Nc2ccc([C@H]3CNCCO3)cc2)c1C [ralmitaront],"Emax values, Mean","hTA1 T194A; T149A (so in the source), single experiments (3 replicates each), β-PEA = 100",41.3499 and 73.0935 and 32.2156
same,"cAMP accumulation response, individual replicate values of the concentration-response curve",hTA1 T194A; M = -7.522,13.1191 and 7.983 and 9.958 and 19.2742 and 14.6569 and 26.511
same,"cAMP accumulation response, individual replicate values of the concentration-response curve",hTA1 T194A; M = -8,2.846 and 8.97 and 3.241 and 12.5702 and 15.1897 and 10.4391
same,"cAMP accumulation response, individual replicate values of the concentration-response curve",hTA1 T194A; M = -8.522,0.8706 and -0.5123 and 0.673 and 2.359 and 3.025 and 2.8472
same,"cAMP accumulation response, individual replicate values of the concentration-response curve",hTA1 T194A; M = -9,-1.105 and -0.3148 and -1.895 and 1.693 and 2.048 and 2.27
same,"cAMP accumulation response, individual replicate values of the concentration-response curve",hTA1 T194A; M = -9.522,-1.895 and -1.698 and -1.5 and -0.7934 and 0.4941 and -0.3494
same,"cAMP accumulation response, individual replicate values of the concentration-response curve",hTA1 T194A; M = -10,-0.9074 and -1.105 (2×) and -0.2606 and -0.1274 and 0.9825
same,"cAMP accumulation response, individual replicate values of the concentration-response curve",hTA1 T194A; M = -10.522,-2.29 and -1.105 (2×) and -0.971 and -0.5714 and -0.1274
same,"cAMP accumulation response, individual replicate values of the concentration-response curve",hTA1 T194A; M = -11,-1.105 (2×) and -0.5123 and -0.1274 and -0.527 and -0.3938
same,"cAMP accumulation response, individual replicate values of the concentration-response curve",hTA1 T194A; M = -11.522,-1.5 and -0.9074 and -1.895 and -0.4826 and 0.2722 and -0.3494
same,"cAMP accumulation response, individual replicate values of the concentration-response curve",hTA1 T194A; M = -12,-1.105 (2×) and -0.5123 and -0.8378 and -0.9266 and 0.05017
same,"cAMP accumulation response, individual replicate values of the concentration-response curve",hTA1 T194A; M = -12.522,-0.5123 and -1.105 (2×) and -0.527 and 0.05017 and -0.6158
same,Emax,"hTA1 T194A; read-out: Span ± SEM (Emax normalized to β-PEA), T194A",48.9 ± 20.4%
same,Emax,"hTA1 I290Y; I290Y, read-out: Span ± SEM (Emax normalized to β-PEA)",17.6 ± 2.61%
same,"Emax values, Mean","hTA1 I290Y; I290Y, single experiments (3 replicates each), β-PEA = 100",14.0517 and 22.6718 and 15.9842
same,"cAMP accumulation response, normalized (concentration-response source data, single replicate values)",hTA1 I290Y; M = -5,15.3564 and 19.3577 and 13.5096 and 22.3431 and 15.3808 and 18.6787 and 17.3474 and 21.8593 and 16.2195
same,"cAMP accumulation response, normalized (concentration-response source data, single replicate values)",hTA1 I290Y; M = -5.522,12.5863 and 17.5109 and 9.201 and 20.8774 and 14.2815 and 17.213 and 8.324 and 11.7076 and 15.0915
same,"cAMP accumulation response, normalized (concentration-response source data, single replicate values)",hTA1 I290Y; M = -6,6.738 and 15.972 and 11.3551 and 15.0144 and 31.5041 and 26.3739 and 8.324 and 3.812 and 11.7076
same,"cAMP accumulation response, normalized (concentration-response source data, single replicate values)",hTA1 I290Y; M = -6.522,9.508 and 11.6629 and 4.584 and 19.0452 and 19.7781 and 16.4801 and 8.324 (2×) and 15.0915
same,"cAMP accumulation response, normalized (concentration-response source data, single replicate values)",hTA1 I290Y; M = -7,5.199 and 18.1265 and 8.893 and 8.052 and 10.6171 and 15.0144 and 6.068 (2×) and 10.5796
same,"cAMP accumulation response, normalized (concentration-response source data, single replicate values)",hTA1 I290Y; M = -7.522,5.815 and 14.7408 and 3.6603 and 6.22 and 6.586 and 4.754 and 1.556 and -0.7002 and 0.4278
same,"cAMP accumulation response, normalized (concentration-response source data, single replicate values)",hTA1 I290Y; M = -8,4.584 and 6.738 and 6.43 and 5.853 and 4.388 and 1.823 and -2.956 and -1.828 and -0.7002
same,"cAMP accumulation response, normalized (concentration-response source data, single replicate values)",hTA1 I290Y; M = -8.522,-1.264 and 1.506 and 0.8902 and -4.04 and -4.407 and 4.021 and -5.212 and -4.0841 and -2.956
same,"cAMP accumulation response, normalized (concentration-response source data, single replicate values)",hTA1 I290Y; M = -9,-2.496 and -0.341 and -1.88 and -5.14 and -1.109 and 9.151 and -5.212 and -4.0841 and -2.956
same,"cAMP accumulation response, normalized (concentration-response source data, single replicate values)",hTA1 I290Y; M = -9.522,-3.7267 and -1.264 and -2.803 and -1.475 and -4.407 and 4.388 and -4.0841 (2×) and -2.956
same,"cAMP accumulation response, normalized (concentration-response source data, single replicate values)",hTA1 I290Y; M = -10,-2.188 (2×) and -0.6488 and -5.873 and -0.7424 and -6.239 and -2.956 (2×) and -1.828
same,"cAMP accumulation response, normalized (concentration-response source data, single replicate values)",hTA1 I290Y; M = -10.522,-2.496
same,ΔEmax values (each mutant value - WT average),hTA1 R83H; R83H mutant minus WT average,-30.9711
same,"Emax values, Mean","hTA1 R83H; R83H mutant, β-PEA = 100, each line an independent experiment, 3 replicates",9.143 and -4.118
same,Emax,"hTA1 R83H; R83H, n=2, read-out: Span ± SEM (Emax normalized to β-PEA)",2.51 ± 6.63%
same,Emax,hTA1,40.1%
same,Emax,"hTA1; WT hTA1, β-PEA = 100, average of the two experiments, read-out: Emax values, Avg",40.1%
same,"Emax values, Mean","hTA1; WT hTA1, β-PEA = 100, each line an independent experiment, 3 replicates",54.4399 and 25.7884
same,"Emax values, Avg","hTA1; WT, average of the experiments, β-PEA = 100",40.11
same,"Emax values, Avg","hTA1; WT, average of the two experiments",40.11
same,"Emax values, Mean","hTA1; WT, mean of each independent experiment (3 replicates), β-PEA = 100",54.4399 and 25.7884
same,"Emax values, Mean","hTA1; WT, single experiments (3 replicates each), β-PEA = 100",54.4399 and 25.7884
